{
  "source": "patent US7208484B2",
  "about": "“Method of synthesizing 1alpha-hydroxy-2-methylene-19-nor-homopregnacalciferol” (Wisconsin Alumni Research Foundation, priority 2002, dated 2007)",
  "origin": "cited, not measured here",
  "key": {"[1]": {"details": "in vivo"}, "vitamin D receptors": {"target": "T1, vitamin D receptors (Homo sapiens, UniProt P11473)", "T1 sequence (P11473 1-427)": "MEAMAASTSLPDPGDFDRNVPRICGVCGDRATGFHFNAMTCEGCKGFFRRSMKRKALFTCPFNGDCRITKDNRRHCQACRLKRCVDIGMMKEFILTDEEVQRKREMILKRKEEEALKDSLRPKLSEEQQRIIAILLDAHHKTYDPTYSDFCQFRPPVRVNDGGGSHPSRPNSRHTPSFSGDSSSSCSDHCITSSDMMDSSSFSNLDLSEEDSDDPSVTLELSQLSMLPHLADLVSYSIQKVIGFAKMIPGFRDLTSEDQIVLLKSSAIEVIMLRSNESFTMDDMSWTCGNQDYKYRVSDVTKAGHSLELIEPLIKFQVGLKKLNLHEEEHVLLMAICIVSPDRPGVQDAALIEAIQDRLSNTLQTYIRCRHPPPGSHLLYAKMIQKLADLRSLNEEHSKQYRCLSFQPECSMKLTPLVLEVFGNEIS", "details": "compared with 1α,25-dihydroxyvitamin D3"}},
  "data": [
    {"compound": "C=C1C(=CC=C2CCCC3(C)C2CCC3C(C)C)CC(O)CC1O", "note": "(stereo not drawn) [1α-hydroxy-20-methyl-pregnacalciferol]", "values": [
      {"measurement": "calcemic activity", "setting": "[1]", "value": "essentially devoid of calcemic activity"},
      {"measurement": "HL-60 cell differentiation ability", "setting": "HL-60 cell", "value": "some HL-60 cell differentiation ability"},
      {"measurement": "binding to the receptor", "setting": "vitamin D receptors", "value": "comparable binding to the receptor as 1α,25-dihydroxyvitamin D3"}
    ]}
  ]
}
